Reference: patent US7008531B2, “Treatment of circulating water systems” (Arch Chemicals Inc., priority 2000, dated 2006)

Key:
[1] = system: field isolated mustard algae; assay: Remedial laboratory study on algae (flask test, optical density after 5 days); format: cell-based; settings: for Difference in performance between octadecylamine and dimethyloctadecylamine: 2.5 ppm with PHMB 4.0 ppm, summary of Table 2; for Comments (algae control) / Average Optical Density: Table 2, 5 days; for Average Optical Density: initial absorbance 0.10, <0.2 = algistatic or algicidal
Description: Remedial efficacy was evaluated in this example using field isolated mustard algae.
Studies were conducted in 125 ml flasks containing 6 mm borosilicate glass beads (50) and Jaworski's medium (50 ml). The flasks were inoculated with pooled cultures of mustard algae to achieve an initial absorbance of 0.10, as measured using a Milton Roy Spec 20 Spectrophotometer. […] The adjuvants identified in Table 2 were added at levels of 1.25 and 2.5 ppm active ingredient. Busan 20/20™ identified in Table 3 was added at levels of 0.625, 1.25, 2.5 and 5.0 ppm. The performance of the adjuvants were compared to the controls with and without PHMB. The flasks were closed using translucent caps, illuminated for 8 hours using a combination of fluorescent grow lamps and standard incandescent lamps each day and incubated at 80° F. for a period of 5 days. Algal growth was measured after 5 days using a Milton Roy Spec 20 spectrophotometer. The higher the optical density the heavier the growth.

[2] = system: field isolated mustard algae; assay: Preventative laboratory study on algae (flask test, visual growth score); format: cell-based; settings: for Average Visual Score: 10 days, 0-4 scale, any score >1 is a preventative failure
Description: In preventative laboratory treatment studies, growth conditions are optimised to support a bloom. An experimental flask is prepared with a medium having optimised growth conditions to support a bloom, the medium in the flask is treated with a prescribed concentration of a test formulation, and then inoculated with a low concentration of a bloom-forming organism. The medium is monitored for a period of time to observe whether the formulation is effective at preventing an algal bloom.
These studies used the most problematic organisms, i.e. field isolated mustard algae.
The Jawaorski's medium was modified by the addition of 4 ppm polyhexamethylene biguanide (PHMB) (ex Avecia Inc.) to inhibit the growth of the bacteria present in the algal isolates. The inocula were harvested by aseptic vacuum filtration and the concentration of algal cell masses were combined (“pooled”) and redispersed in a aseptic medium to provide a concentrated pooled inoculum. The amount of inoculum used was varied to achieve an initial optical density of 0.010 in the test flasks. The optical density was determined using a Milton Roy Spec 20 spectrophotometer.
[…] Each flask was then inoculated with a prescribed amount of the pooled inoculum, so that the liquid in the flask had no visible green cast.

[3] = Effect of adjuvant on water clarity (simulated swimming pool water, Hach Turbidimeter and visual inspection); format: physicochemical; settings: for Turbidity / Visual Observations: simulated pool water with PHMB 6-12 ppm, pH 7.2-7.8, circulated 24 hours; for Turbidity: 70±3° F.; for Effect on water clarity: summary of Table 4, simulated pool water with PHMB
Description: Six 10 gallon fish aquariums equipped with a heater and a recirculating pump (to simulate a swimming pool environment) were filled with simulated swimming pool water containing polyhexamethylene biguanide (PHMB) comprising:
The pH of the tanks was maintained between 7.2 and 7.8 and the water temperature was maintained at 70±3° F. After the chemical additions the water was circulated for 24 hours. The water in each tank was then visually inspected and tested for turbidity using a Hach Turbidimeter.

[4] = adjuvant 1.25 ppm + PHMB 4.0 ppm
[5] = adjuvant 2.5 ppm + PHMB 4.0 ppm

Structure (SMILES): CCCCCCCCCCCCCCCCCCN(C)C [Dimethyloctadecylamine, dimethyloctadecylamine]
- Difference in performance between octadecylamine and dimethyloctadecylamine [1]: no significant difference
- Comments (algae control) [1, 4]: Control
- Average Optical Density [1, 4]: 0.12
- Average Optical Density [1, 5]: 0.07

Structure (SMILES): CCCCCCCCCCCCN [Dodecylamine, dodecylamine]
- Average Optical Density [1, 4]: 0.08
- Comments (algae control) [1, 5]: Control
- Average Optical Density [1, 5]: 0.12
- Average Visual Score [2, 5]: 0
- Average Visual Score ([2]; adjuvant 5.0 ppm + PHMB 4.0 ppm): 0
- Average Visual Score ([2]; adjuvant 10.0 ppm + PHMB 4.0 ppm): 0
- Average Visual Score ([2]; adjuvant 15.0 ppm + PHMB 4.0 ppm): 0
- Preventing the field isolated mustard algae outbreak, compared with PHMB alone ([2]; in combination with PHMB, summary of Table 1): effectiveness
- Turbidity ([3]; adjuvant 2.5 ppm): 2.7 NTU
- Visual Observations ([3]; adjuvant 2.5 ppm): Clear
- Turbidity ([3]; adjuvant 5.0 ppm): 1.8 NTU
- Visual Observations ([3]; adjuvant 5.0 ppm): Clear
- Turbidity ([3]; adjuvant 10.0 ppm): 2.5 NTU
- Visual Observations ([3]; adjuvant 10.0 ppm): Clear
- Effect on water clarity [3]: no effect on water clarity

Structure (SMILES): CCCCCCCCCCCCCCCCCCN [Octadecylamine, octadecylamine]
- Difference in performance between octadecylamine and dimethyloctadecylamine [1]: no significant difference
- Comments (algae control) [1, 4]: Control
- Average Optical Density [1, 4]: 0.16
- Average Optical Density [1, 5]: 0.08

Structure (SMILES): CCCCCCCCCCCCCCN [Tetradecylamine, reference compound]
- Turbidity ([3]; adjuvant 5.0 ppm): 10.1 NTU
- Visual Observations ([3]; adjuvant 5.0 ppm): Cloudy
- Turbidity ([3]; adjuvant 10.0 ppm): 19.0 NTU
- Visual Observations ([3]; adjuvant 10.0 ppm): Cloudy
- Effect on water clarity [3]: resulted in water turbidity
